Patent US20070219220A1, “Pyrazolopyrimidinethione Derivatives, Salts and Solvates Thereof, Preparation Methods and Use Thereof” (priority 2003, published 2007)
Marks after values point to notes of the source that are not given here.

System: mice with testis removed
Test: Sexual function (back climbing) of testis-removed mice (Example 10)
Assay type: in vivo, KM mice
Conditions: for Incidence: back climbing within 2 hours after administration; for Times of back climbing / Number of the animals who performed back climbing: within 2 hours after administration; for Number of the animals who performed back climbing: 10 male mice
Description: Methods: Forty healthy KM male mice with the body weight ranging from 28-32 g and forty healthy KM female mice with body weight ranging from 24-28 g were used. Each male mouse was anesthetized with sodium pentobarbital, and the testes were squeezed into the scrotum. After sterilization, the scrotum was dissected with an operating knife. The testes and epididymis were respectively taken out, and then ligated. The wound were sutured and each of the mice was administrated with 100,000 units of penicillin for three consecutive days. After being bred for one week, the mice were used for the tests. The animals may be employed repeatedly and the interval between any two tests was 72 hours. To the mice, the following compounds were orally administered: compound (1), compound (2), compound (3), and compound (4), each at the dose of 80 mg/kg and 40 mg/kg, respectively. The positive control agent was Sildenafil, at the dose of 80 mg/kg. The control group was given with 1% of sodium carboxymethyl cellulose. At 30 min after the administration, the male mice who had taken the above agents were put into the cages of female mice, with the male-to-female rate of 1:1. There were three males and three females in each cage. The times of back climbing on the female mice performed by the male mice, and the percentage of occurrence were observed within 2 hours after the administration.

Q: With `CCCc1nn(C)c2c(=S)[nH]c(-c3cc(S(=O)(=O)N4C[C@@H](C)N[C@@H](C)C4)ccc3OCC)nc12` [Compound (2), 5-[2-ethoxy-5-(cis-3,5-dimethylpiperazin-1-sulfonyl)phenyl]-1-methyl-3-n-propyl-1,6-dihydro-7H-pyrazolo[4,3-d]pyrimidin-7-thione] as the molecule, how does the Incidence (oral 40 mg/kg) read?
A: 60%

Q: And the “Times of back climbing” value (oral 40 mg/kg, 40 mg/kg)?
A: 11*

Q: What about the “Number of the animals who performed back climbing” value (oral 40 mg/kg) of the same molecule?
A: 6*

Q: What about the “Times of back climbing” value (oral 40 mg/kg, listed as compound (2), 40 mg/kg) of the same molecule?
A: 11

Q: And the Incidence (oral 80 mg/kg)?
A: 80%

Q: And the “Times of back climbing” value (oral 80 mg/kg, 80 mg/kg)?
A: 20**

Q: And the “Number of the animals who performed back climbing” value (oral 80 mg/kg)?
A: 8**

Q: What about the “Times of back climbing” value (oral 80 mg/kg, listed as compound (2), 80 mg/kg) of the same molecule?
A: 20
